Patent publication US11072588B2, “Barbituric acid derivatives comprising cationic and lipophilic groups” (UNIVERSITETET I TROMSØ—NORGES ARKTISKE UNIVERSITET, priority 2017, dated 2021)
≈ marks a conversion by molar mass, not a printed value. Where two headings read alike, the source gives them in different places.

Columns and labels:
S. aureus IHT 99040 = experiment: MIC, multi-resistant clinical isolate; assay type: cell-based, Staphylococcus aureus; conditions: for selectivity index (EC50/MIC): RBC EC50 / MIC; for MIC: Staphylococcus aureus, IHT99040, read-out: Antimicrobial activity (MIC)
Procedure: (§1) Working solutions of the test derivatives were prepared with up to 100% DMSO and stored at −20° C. If necessary, the solutions were heated to 40-80° C. before testing to facilitate complete dissolution. Double-distilled water was used in all dilutions prepared. […] A microdilution susceptibility test was used for MIC determination according to Clinical and Laboratory Standards Institute, “Methods for Dilution Antimicrobial Sisceptibility Tests for Bacteria That Graw Aerobically”, Approved Standard M07-A9, edition 2012, with modifications as described by Igumnova et al (Bioorg Med Chem, 2016, 24 (22), 5884-5894).
(§2) Briefly, the bacterial inoculum was adjusted to approximately 2.5-3×10^4 cells/mL in Mueller-Hinton broth (MHB, Difco Laboratories, USA), and incubated in a ratio of 1:1 with test derivatives in polystyrene 96-well flat-bottom microplates (NUNC, Roskilde, Denmark). Positive growth control (without test derivatives) and negative control (without bacteria) were included. The reference antibiotic was oxytetracycline hydrochloride (Sigma Aldrich, Saint Louis, Mo., USA). The microplates were incubated in an EnVision microplate reader (Perkin-Elmer, Turku, Finland) placed in an incubator set to 35° C. for 48 h. The MIC value was defined as the lowest concentration of derivative resulting in no bacterial growth as determined by OD600 measurement. All derivatives were tested in three parallels.
(§3) The MIC was determined as explained above with some exceptions; working solutions of test derivatives were prepared from concentrated DMSO stocks stored at room temperature, the density of the bacterial inoculum was increased 40× to 1-1.2×10^6 cells/mL, enterococci were incubated in Brain Heart Infusion broth (BHIB, Difco Laboratories, USA), the microplates were incubated for 24 h, and the derivatives were tested in four parallels.

S. aureus N315 = experiment: MIC, multi-resistant clinical isolate; assay type: cell-based, Staphylococcus aureus; conditions: for selectivity index (EC50/MIC): RBC EC50 / MIC, S. aureus N315; for MIC: Staphylococcus aureus, N315, read-out: Antimicrobial activity (MIC)
Procedure: as §1, §2, §3

S. aureus NCTC 10442 = experiment: MIC, multi-resistant clinical isolate; assay type: cell-based, Staphylococcus aureus; conditions: for selectivity index (EC50/MIC): RBC EC50 / MIC, S. aureus NCTC 10442; for MIC: Staphylococcus aureus, NCTC10442, read-out: Antimicrobial activity (MIC)
Procedure: as §1, §2, §3

S. aureus strain 85/2082 = experiment: MIC, multi-resistant clinical isolate; assay type: cell-based, Staphylococcus aureus; conditions: for selectivity index (EC50/MIC): RBC EC50 / MIC, S. aureus strain 85/2082; for MIC: Staphylococcus aureus, 85/2082, read-out: Antimicrobial activity (MIC)
Procedure: as §1, §2, §3

S. aureus strain WIS = experiment: MIC, multi-resistant clinical isolate; assay type: cell-based, Staphylococcus aureus; conditions: for selectivity index (EC50/MIC): RBC EC50 / MIC, S. aureus strain WIS; for MIC: Staphylococcus aureus, read-out: Antimicrobial activity (MIC)
Procedure: as §1, §2, §3

E. coli 50676002 = experiment: MIC, multi-resistant clinical isolate; assay type: cell-based, Escherichia coli; conditions: for selectivity index (EC50/MIC): RBC EC50 / MIC
Procedure: as §1, §2, §3

E. coli 50739822 = experiment: MIC, multi-resistant clinical isolate; assay type: cell-based, Escherichia coli; conditions: for MIC: Escherichia coli, read-out: Antimicrobial activity (MIC); for selectivity index (EC50/MIC): RBC EC50 / MIC
Procedure: as §1, §2, §3

P. aeruginosa 50692172 = experiment: MIC, multi-resistant clinical isolate; assay type: cell-based, Pseudomonas aeruginosa; conditions: for MIC: Pseudomonas aeruginosa, read-out: Antimicrobial activity (MIC); for selectivity index (EC50/MIC): RBC EC50 / MIC
Procedure: as §1, §2, §3

P. aeruginosa 50692520 = experiment: MIC, multi-resistant clinical isolate; assay type: cell-based, Pseudomonas aeruginosa; conditions: for MIC: Pseudomonas aeruginosa, read-out: Antimicrobial activity (MIC); for selectivity index (EC50/MIC): RBC EC50 / MIC
Procedure: as §1, §2, §3

P. aeruginosa K34-73 = experiment: MIC, multi-resistant clinical isolate; assay type: cell-based, Pseudomonas aeruginosa; conditions: for MIC: Pseudomonas aeruginosa; for selectivity index (EC50/MIC): RBC EC50 / MIC
Procedure: as §1, §2, §3

P. aeruginosa K34-7 = experiment: MIC, multi-resistant clinical isolate; assay type: cell-based, Pseudomonas aeruginosa; conditions: for MIC: Pseudomonas aeruginosa, K347, read-out: Antimicrobial activity (MIC); for selectivity index (EC50/MIC): RBC EC50 / MIC, P. aeruginosa K34-7
Procedure: as §1, §2, §3

P. aeruginosa K44-24 = experiment: MIC, multi-resistant clinical isolate; assay type: cell-based, Pseudomonas aeruginosa; conditions: for MIC: Pseudomonas aeruginosa, K4424, read-out: Antimicrobial activity (MIC); for selectivity index (EC50/MIC): RBC EC50 / MIC
Procedure: as §1, §2, §3

A. baumanii K12-21 = experiment: MIC, multi-resistant clinical isolate; assay type: cell-based, Acinetobacter baumannii; conditions: for MIC: Acinetobacter baumannii, K1221, read-out: Antimicrobial activity (MIC); for selectivity index (EC50/MIC): RBC EC50 / MIC
Procedure: as §1, §2, §3

A. baumanii K44-35 = experiment: MIC, multi-resistant clinical isolate; assay type: cell-based, Acinetobacter baumannii; conditions: for MIC: Acinetobacter baumannii, K4435, read-out: Antimicrobial activity (MIC); for selectivity index (EC50/MIC): RBC EC50 / MIC
Procedure: as §1, §2, §3

A. baumanii K47-42 = experiment: MIC, multi-resistant clinical isolate; assay type: cell-based, Acinetobacter baumannii; conditions: for MIC: Acinetobacter baumannii, K4742, read-out: Antimicrobial activity (MIC); for selectivity index (EC50/MIC): RBC EC50 / MIC
Procedure: as §1, §2, §3

A. baumanii K55-13 = experiment: MIC, multi-resistant clinical isolate; assay type: cell-based, Acinetobacter baumannii; conditions: for MIC: Acinetobacter baumannii, K5513, read-out: Antimicrobial activity (MIC); for selectivity index (EC50/MIC): RBC EC50 / MIC
Procedure: as §1, §2, §3

A. baumanii K63-58 = experiment: MIC, multi-resistant clinical isolate; assay type: cell-based, Acinetobacter baumannii; conditions: A. baumanii K63-58, resistant to colistin; for MIC: Acinetobacter baumannii, K6358, 24 h, read-out: Antimicrobial activity (MIC); for selectivity index (EC50/MIC): RBC EC50 / MIC
Procedure: as §1, §2, §3

[1] = tested on: human metastatic melanoma (A2058, ATCC CRL-11147) cells; experiment: Anti-cancer activity against A2058 cells; assay type: cell-based; conditions: A2058, read-out: Anti-cancer IC50
Procedure: Cytotoxicity of the test compounds was evaluated after 72 hour exposure to human metastatic melanoma (A2058, ATCC CRL-11147) cells.
A2058 cells were grown overnight (2,000 cells/well), and then incubated with the test compounds (range of concentrations) diluted in MEM Earle's supplemented with gentamycin (10 μg/mL), non-essential amino acids (1%), sodium pyruvate (1 mM), L-alanyl-Lglutamine (2 mM), but without FBS (total volume was 100 μl) for […]. Ten μL of CellTiter 96® AQueous One Solution Reagent (Promega, Madison, Wis., USA) was added, and the plates were then further incubated for 1 hour.
Absorbance was measured at 485 nm in a DTX 880 Multimode Detector. Results were calculated as % survival compared to negative (assay media) and positive (Triton X-100; Sigma-Aldrich) controls.

[2] = tested on: panel of 30 multi-resistant clinical isolates of Gram-positive and Gram-negative bacteria; experiment: MIC screening, ranges over the panel of clinical isolates; assay type: cell-based
Procedure: as §1, §2, §3

Compound | selectivity index (EC50/MIC) (S. aureus IHT 99040) | MIC (S. aureus IHT 99040) [µg/mL] | selectivity index (EC50/MIC) (S. aureus N315) | MIC (S. aureus N315) [µg/mL] | selectivity index (EC50/MIC) (S. aureus NCTC 10442) | MIC (S. aureus NCTC 10442) [µg/mL] | selectivity index (EC50/MIC) (S. aureus strain 85/2082) | MIC (S. aureus strain 85/2082) [µg/mL] | selectivity index (EC50/MIC) (S. aureus strain WIS) | MIC (S. aureus strain WIS) [µg/mL] | selectivity index (EC50/MIC) (E. coli 50676002; E. coli 50676002) | MIC (E. coli 50739822) [µg/mL] | selectivity index (EC50/MIC) (E. coli 50739822) | MIC (P. aeruginosa 50692172) [µg/mL] | selectivity index (EC50/MIC) (P. aeruginosa 50692172) | MIC (P. aeruginosa 50692520) [µg/mL] | selectivity index (EC50/MIC) (P. aeruginosa 50692520) | selectivity index (EC50/MIC) (P. aeruginosa K34-73; P. aeruginosa K34-73) | MIC (P. aeruginosa K34-7) [µg/mL] | selectivity index (EC50/MIC) (P. aeruginosa K34-7) | further results
NCCCCN1C(=O)N(CCCCN)C(=O)C(Cc2ccc(F)c3ccccc23)(Cc2ccc(F)c3ccccc23)C1=O [7(v), 1,3-bis(4-aminobutyl)-5,5-bis((4-fluoronaphtalen-1-yl)methyl)pyrimidin-2,4,6(1H,3H,5H)-trione] | (20) | 8 (≈ 13.6 µM) | (20) | 8 (≈ 13.6 µM) | (20) | 8 (≈ 13.6 µM) | (40) | 4 (≈ 6.82 µM) | (20) | 8 (≈ 13.6 µM) | (10) | 16 (≈ 27.3 µM) | (10) | 16 (≈ 27.3 µM) | (10) | 16 (≈ 27.3 µM) | (10) | (5) | 32 (≈ 54.5 µM) | (5) | MIC (E. coli 50676002; Escherichia coli, 50676002, read-out: Antimicrobial activity (MIC)): 16 µg/mL (≈ 27.3 µM); MIC (P. aeruginosa K34-73; K3473, read-out: Antimicrobial activity (MIC)): 32 µg/mL (≈ 54.5 µM); MIC (P. aeruginosa K44-24): 32 µg/mL (≈ 54.5 µM); selectivity index (EC50/MIC) (P. aeruginosa K44-24): (5); MIC (A. baumanii K12-21): 32 µg/mL (≈ 54.5 µM); selectivity index (EC50/MIC) (A. baumanii K12-21): (5); MIC (A. baumanii K44-35): 32 µg/mL (≈ 54.5 µM); selectivity index (EC50/MIC) (A. baumanii K44-35): (5); MIC (A. baumanii K47-42): 32 µg/mL (≈ 54.5 µM); selectivity index (EC50/MIC) (A. baumanii K47-42): (5); MIC (A. baumanii K55-13): 32 µg/mL (≈ 54.5 µM); selectivity index (EC50/MIC) (A. baumanii K55-13): (5); MIC (A. baumanii K63-58): 16 µg/mL (≈ 27.3 µM); selectivity index (EC50/MIC) (A. baumanii K63-58): (10); IC50 [1]: 1 µg/mL (≈ 1.7 µM); MIC ([2]; Enterococcus faecium, read-out: MIC values against the Gram-positive isolates of S. aurues and E. faecium): 4 to 16 µg/mL (≈ 6.82 to 27.3 µM)
N=C(N)NCCCCN1C(=O)N(CCCCNC(=N)N)C(=O)C(Cc2cc(Br)cc(Br)c2)(Cc2cc(Br)cc(Br)c2)C1=O [8(ii), 1,1′-(4,4′-(5,5-bis(3,5-dibromobenzyl)-2,4,6-trioxodihydropyrimidine-1,3(2H,4H)-diyl)bis(butane-4,1-diyl))diguanidine] | (28) | 2 (≈ 2.35 µM) | (28) | 2 (≈ 2.35 µM) | (28) | 2 (≈ 2.35 µM) | (28) | 2 (≈ 2.35 µM) | (28) | 2 (≈ 2.35 µM) | (14) | 4 (≈ 4.7 µM) | (14) | 8 (≈ 9.41 µM) | (7) | 16 (≈ 18.8 µM) | (4) | (7) | 8 (≈ 9.41 µM) | (7) | MIC (E. coli 50676002; Escherichia coli, E. coli 50676002, read-out: Antimicrobial activity (MIC)): 4 µg/mL (≈ 4.7 µM); MIC (P. aeruginosa K34-73; K3473, P. aeruginosa K34-73, read-out: Antimicrobial activity (MIC)): 8 µg/mL (≈ 9.41 µM); MIC (P. aeruginosa K44-24): 8 µg/mL (≈ 9.41 µM); selectivity index (EC50/MIC) (P. aeruginosa K44-24): (7); MIC (A. baumanii K12-21): 4 µg/mL (≈ 4.7 µM); selectivity index (EC50/MIC) (A. baumanii K12-21): (14); MIC (A. baumanii K44-35): 4 µg/mL (≈ 4.7 µM); selectivity index (EC50/MIC) (A. baumanii K44-35): (14); MIC (A. baumanii K47-42): 4 µg/mL (≈ 4.7 µM); selectivity index (EC50/MIC) (A. baumanii K47-42): (14); MIC (A. baumanii K55-13): 8 µg/mL (≈ 9.41 µM); selectivity index (EC50/MIC) (A. baumanii K55-13): (7); MIC (A. baumanii K63-58): 4 µg/mL (≈ 4.7 µM); selectivity index (EC50/MIC) (A. baumanii K63-58): (14); IC50 [1]: 2 µg/mL (≈ 2.35 µM); MIC ([2]; read-out: MIC values against all the 30 multi-resistant clinical isolates): 2 to 16 µg/mL (≈ 2.35 to 18.8 µM)
